The values below come from PubChem BioAssay (NCI).

Structures are written as SMILES.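 Results reflect a 48-hour exposure of cells in 96-well plates to compound at five concentrations. GI50: concentration for 50% inhibition of growth. TGI marks complete inhibition of growth.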 Where only a bound is given, the exact number is not on record here.

Some test systems named below: MALME-3M melanoma; UACC-62 melanoma; HOP-92 NSCLC; TK-10 renal; SNB-19 CNS; BT-549 breast; RPMI-8226 leukemia; HL-60(TB) leukemia; 786-0 renal; CCRF-CEM leukemia.
What all share (assay): NCI-60 cell line screen, 48 h

For the compound `O=C1/C(=C/c2cccc(Br)c2)COc2ccc(O)c(O)c21`, the GI50 in the experiment with MALME-3M melanoma was 1490 nM; in the experiment with UACC-62 melanoma, 1640 nM; in the experiment on HOP-92 NSCLC, 1890 nM; with TK-10 renal, 1700 nM; in the experiment with SNB-19 CNS, 1530 nM; with BT-549 breast, 2030 nM. Also, the GI50 in the experiment with RPMI-8226 leukemia is 248 nM; with HL-60(TB) leukemia, 969 nM; in the experiment with 786-0 renal, 1460 nM; in the experiment with CCRF-CEM leukemia it was 312 nM. The TGI was 3060 nM in the experiment with MALME-3M melanoma; 3140 nM in the experiment with UACC-62 melanoma; 7210 nM in the experiment with HOP-92 NSCLC; 3100 nM in the experiment with TK-10 renal; 3040 nM in the experiment with SNB-19 CNS; 4350 nM in the experiment on BT-549 breast. The TGI in the experiment with RPMI-8226 leukemia was 649 nM; with HL-60(TB) leukemia, 4050 nM; in the experiment on 786-0 renal, 4100 nM; with CCRF-CEM leukemia, 1690 nM.

Consider `NS(=O)(=O)c1cccc(-c2ccc3c(NC(=O)C4CC4)n[nH]c3c2)c1`, for which the GI50 is more than 19800 nM in the experiment with MALME-3M melanoma; 15700 nM in the experiment on UACC-62 melanoma; more than 25000 nM in the experiment with HOP-92 NSCLC; more than 25000 nM in the experiment with TK-10 renal; 20400 nM in the experiment on SNB-19 CNS; more than 21000 nM with BT-549 breast. For the same compound, the GI50 in the experiment on RPMI-8226 leukemia was more than 25000 nM; with HL-60(TB) leukemia it was 8310 nM; in the experiment with 786-0 renal it was 24300 nM; in the experiment with CCRF-CEM leukemia, 8510 nM. In addition, the TGI in the experiment with MALME-3M melanoma, in the experiment with UACC-62 melanoma, in the experiment on HOP-92 NSCLC, in the experiment on TK-10 renal, with SNB-19 CNS and in the experiment with BT-549 breast was more than 25000 nM throughout. The TGI was more than 25000 nM in the experiment with RPMI-8226 leukemia, more than 22500 nM in the experiment with HL-60(TB) leukemia, more than 25000 nM with 786-0 renal and more than 25000 nM with CCRF-CEM leukemia.

In the case of `Cc1cccc2c(Nc3ccc(NS(C)(=O)=O)cc3)c3ccc([N+](=O)[O-])cc3nc12`, the GI50 in the experiment with MALME-3M melanoma is 1210 nM; with UACC-62 melanoma, 773 nM; in the experiment on HOP-92 NSCLC, 345 nM; with TK-10 renal it was 3160 nM; in the experiment with SNB-19 CNS it was 456 nM; with BT-549 breast, 1750 nM. Also, the GI50 with RPMI-8226 leukemia is 1090 nM; in the experiment on HL-60(TB) leukemia, 2070 nM; in the experiment on 786-0 renal, 738 nM; in the experiment on CCRF-CEM leukemia it was 326 nM. In addition, the TGI in the experiment with MALME-3M melanoma was found to be 3430 nM; in the experiment on UACC-62 melanoma, 3010 nM; in the experiment on HOP-92 NSCLC it was 2470 nM; in the experiment on TK-10 renal it was 17500 nM; in the experiment on SNB-19 CNS it was 14700 nM; in the experiment with BT-549 breast, 7470 nM. The TGI with RPMI-8226 leukemia stood at 7560 nM; in the experiment on HL-60(TB) leukemia it was 7090 nM; in the experiment on 786-0 renal it was 4450 nM; in the experiment on CCRF-CEM leukemia it was 4520 nM.

As for `Brc1cccc(-c2cc(-c3ccc4nccnc4c3)[nH]n2)c1`, the GI50 with MALME-3M melanoma was 1300 nM; with UACC-62 melanoma it was 1350 nM; with HOP-92 NSCLC, 4540 nM; in the experiment on TK-10 renal, 2950 nM; in the experiment with SNB-19 CNS, 1410 nM; in the experiment on BT-549 breast, 2150 nM. Further, the GI50 in the experiment with RPMI-8226 leukemia is 865 nM; in the experiment on HL-60(TB) leukemia it was 519 nM; in the experiment on 786-0 renal, 1660 nM; in the experiment with CCRF-CEM leukemia it was 864 nM. In addition, the TGI in the experiment with MALME-3M melanoma, in the experiment with UACC-62 melanoma, in the experiment on HOP-92 NSCLC, in the experiment on TK-10 renal, with SNB-19 CNS and in the experiment on BT-549 breast was more than 250000 nM throughout. In addition, the TGI with RPMI-8226 leukemia is 76400 nM; in the experiment on HL-60(TB) leukemia, 1750 nM; in the experiment with 786-0 renal, more than 250000 nM; in the experiment on CCRF-CEM leukemia it was more than 250000 nM.

Consider `COc1cccc(CC(C)=C(c2ccc(OCCCN(C)C)cc2)c2ccc(OCCCN(C)C)cc2)c1`, for which the GI50 in the experiment on MALME-3M melanoma was 403 nM; in the experiment with UACC-62 melanoma it was 457 nM; in the experiment with HOP-92 NSCLC, 747 nM; in the experiment on TK-10 renal, 1350 nM; with SNB-19 CNS it was 905 nM; in the experiment with BT-549 breast, 3090 nM. In addition, the GI50 in the experiment with RPMI-8226 leukemia is 550 nM; with HL-60(TB) leukemia it was 506 nM; in the experiment with 786-0 renal, 416 nM; with CCRF-CEM leukemia, 463 nM. The TGI in the experiment with MALME-3M melanoma amounted to 774 nM; with UACC-62 melanoma, 835 nM; in the experiment on HOP-92 NSCLC it was 3790 nM; with TK-10 renal, 3010 nM; in the experiment with SNB-19 CNS, 3340 nM; in the experiment with BT-549 breast, 6420 nM. In addition, the TGI in the experiment on RPMI-8226 leukemia came out at 1290 nM; in the experiment with HL-60(TB) leukemia, 1020 nM; with 786-0 renal it was 771 nM; with CCRF-CEM leukemia, 1130 nM.

With `Cc1ccc(Sc2oc(-c3ccc(C)cc3)nc2[P+](c2ccccc2)(c2ccccc2)c2ccccc2)cc1`, the GI50 in the experiment on MALME-3M melanoma was 241 nM; with UACC-62 melanoma it was 398 nM; in the experiment on HOP-92 NSCLC, 178 nM; with TK-10 renal it was 447 nM; in the experiment on SNB-19 CNS it was 375 nM; in the experiment with BT-549 breast, 365 nM. For the same compound, the GI50 in the experiment on RPMI-8226 leukemia was 308 nM; in the experiment on HL-60(TB) leukemia, 230 nM; with 786-0 renal, 379 nM; with CCRF-CEM leukemia it was 310 nM. Further, the TGI with MALME-3M melanoma was determined as 813 nM; with UACC-62 melanoma it was 1500 nM; in the experiment with HOP-92 NSCLC, 722 nM; with TK-10 renal, 1850 nM; with SNB-19 CNS, 1470 nM; in the experiment with BT-549 breast, 1370 nM. Further, the TGI was 1350 nM in the experiment with RPMI-8226 leukemia, 566 nM with HL-60(TB) leukemia, 1650 nM in the experiment with 786-0 renal and 1640 nM in the experiment with CCRF-CEM leukemia.

`NC(=O)c1cccc(-c2cc(C(N)=O)ccc2Cl)c1`: the GI50 is 3980 nM in the experiment with MALME-3M melanoma; 1770 nM in the experiment with UACC-62 melanoma; 9120 nM with TK-10 renal; 2890 nM with SNB-19 CNS; 6820 nM with BT-549 breast; 318 nM in the experiment with RPMI-8226 leukemia. The figures for the GI50 in the experiment with HL-60(TB) leukemia, in the experiment on 786-0 renal and in the experiment on CCRF-CEM leukemia were 2420 nM, 5370 nM and 2190 nM, respectively. For the same compound, the TGI in the experiment with MALME-3M melanoma is more than 100000 nM; in the experiment with UACC-62 melanoma it was 56000 nM; in the experiment on HOP-92 NSCLC, 6990 nM; in the experiment with TK-10 renal, more than 100000 nM; with SNB-19 CNS, more than 100000 nM; in the experiment on BT-549 breast it was more than 100000 nM. Moreover, the TGI with RPMI-8226 leukemia was 3110 nM; in the experiment on HL-60(TB) leukemia, 5910 nM; with 786-0 renal, more than 100000 nM; in the experiment on CCRF-CEM leukemia, more than 100000 nM.
